In US4820712A, “Sparsomycin (SC-RS) compounds having antitumor activity, a process for their preparation and pharmaceutical compositions containing sparsomycin (SC-RS) compounds” (priority 1986, dated 1989):
Converted amounts (≈) assume the structure as drawn. Like-named read-outs stand apart in the source and are kept apart here.

Experiments:
[1] = test system: L1210 leukemia; assay: in vivo antitumor assay, L1210 leukemia; set-up: species or system CDF1 mice
Description: (§1) The antitumor activity of the present compounds has also been investigated by in vivo assays. In the assays, mice were treated for nine days in succession, starting at 24 hours after the time of tumor implant.
(§2) The results are shown in tables 4, 5 and 6 and represent the number of tumor-bearing mice surviving after administration of optimal doses of the test compound, expressed as a treatment/control (T/C×100%) ratio. In the tables, information is provided with respect to the sex, dose, weight loss of treated animals compared to control animals, and the number of survivors in groups of 6 mice.

[2] = test system: P388 leukemia; assay: in vivo antitumor assay, P388 leukemia; set-up: species or system CDF1 mice; settings: for T/C (survival, treatment/control x 100%): ip daily x9, optimal dose mg/kg: sparsomycin 0.125, n-octyl 22.5, benzyl 2.0, 2e 20.0
Description: as §1, §2

[3] = acute toxicity LD50; type: in vivo, mice; settings: mouse, in vivo, ip, daily x9 injections, mice; 95% confidence interval given; read-out: LD 50 in mg/kg/inj i.p. in mice
From the text: It appears therefrom that ala-sparsomycin is about 9× less toxic than sparsomycin.

[4] = test system: Leukemia L 1210 cells; assay: in vitro clonogenic L1210 assay (inhibition of colony formation in soft agar); type: cell-based; settings: Mus musculus, L1210, 72 h, read-out: ID50 (dose giving 50% inhibition of L1210 colony formation)
Description: The in vitro clonogenic assay was effected in Leukemia L 1210 cells in soft agar medium (0.3%). […] In the analysis, the inhibition of the L 1210 colony formation by sparsomycin and derivatives thereof is determined for various concentrations, and the dose giving 50% inhibition of the colony formation, as compared with non-treated control cells is calculated (ID50).
From a suspension culture one hundred L 1210 cells are plated out in 35 mm culture dishes (Falcon) containing 1 ml soft agar culture medium and the compound to be investigated in suitable concentrations. The soft agar culture medium consists of Dulbecco's medium supplemented with 20% horse serum, 60 μmole 2-mercaptoethanol, 20 mg/ml L-asparagine, 75 mg/ml DEAE dextran (molecular weight 2×10^6) and 0.3% bacto agar (Difco). The culture dishes were incubated at 37° C. in an atmosphere of 10% CO2 in humidified air for 3 days. After this period of continuous exposure to the medicament the colonies were counted and dose-effect curves made. From these curves, the medicament dose is calculated which causes 50% inhibition of the colony formation as compared with non-treated control cells.

[5] = test system: ribosomes from E. coli MRE600 (peptidyl transferase activity); assay: polyphenylalanine synthesis assay, E. coli ribosomes; type: biochemical; settings: concentration giving 50% inhibition relative to control; 37° C., 30 min; read-out: ED50 polyPhe synthesis E. coli
Description: (§3) The peptidyl transferase activity was measured by the polyphenylalanine synthesis assay (Nirenberg and Matthei, Proc. Natl. Acad. Sci. USA 47 (1961) 1588), the fragment reaction (Monro, Methods Enzymol. 20 (1971) 472) and the puromycin reaction. In all the in vitro tests, i.e. polyPhe synthesis, fragment reaction and puromycin reaction, ribosomes from E. coli MRE600 and S. cerevisiae Y166 were used. The reaction mixture for polyphenylalanine synthesis was slightly different for E. coli and S. cerevisiae.
E. coli: The reaction mixture (50 μl) contained 50 mM Tris-HCl pH 7.6, 15 mM MgCl2, 90 mM KCl, 15 mM β-mercapto ethanol, 1 mM GTP, 10 mM ATP, 0.2 mg/ml of polyuridylic acid, 1.5 mg/ml tRNA, 0.3 μM of ribosomes, 2.5 mg/ml of phosphoenol pyruvate, 20 μg/ml of pyruvate kinase, the required concentration of sparsomycin or its analogue and 5 μl of supernatant fraction S-100. Subsequently, [^3 H]phenylalanine, 30 μM (about 60 cpm/pmol) was added to start the reaction. Incubation was at 37° C. for 30 min. The reaction was stopped by the addition of 1 ml of 10% TCA and the samples were filtered through glass fiber filters. The filters were washed with 10 ml of cold 10% TCA, dried and counted for radioactivity.
(§4) The concentration of sparsomycin or an analog giving 50% inhibition of the protein synthesis relative to the control is given in ED50.

[6] = molecular target: ribosomes from S. cerevisiae Y166 (peptidyl transferase activity); assay: polyphenylalanine synthesis assay, S. cerevisiae ribosomes; type: biochemical; settings: concentration giving 50% inhibition relative to control; 30° C., 30 min; read-out: ED50 polyPhe synthesis S. cerevisiae
Description: as §3
S. cerevisiae: The test was carried out as indicated above for E. coli. The phosphoenol pyruvate and pyruvate kinase were, however, replaced by creatine phosphate (20 mM) and creatine phosphokinase (50 μg/ml). The incubation was performed at 30° C. for 30 min and the samples were processed as described above. Under these conditions the control samples polymerized 5-14 and 3-8 molecules of phenylalanine per ribosome derived from E. coli and S. cerevisiae, respectively. Ribosomes and supernatant factors from E. coli and S. cerevisiae were prepared according to standard procedures, described by Staehelin and Maglott, Methods Enzymol. 20 (1971) 449, and by Sanchez-Madrid et al, Eur. J. Biochem. 98 (1979) 409.
as §4

[7] = test system: ribosomes from E. coli MRE600 (peptidyl transferase activity); assay: fragment reaction, E. coli ribosomes; type: biochemical; settings: 50% inhibition relative to control; 0° C., 30 min, 33% methanol; read-out: ED50 Fragment reaction E. coli
Description: as §3
(§5) The fragment reaction was carried out in 150 μl of 33 mM Tris-HCl pH 7.4, 270 mM KCl, 13 mM magnesium acetate containing 1 mg/ml of ribosomes, 2 mM puromycin, 1 pmol of N-acetyl-[^3 H]Leu-ACCAC(U), the required concentration of sparsomycin or its analogue and 33% methanol. The reaction was initiated by the addition of the alcohol and allowed to proceed at 0° C. for 30 min, and was then stopped by the addition of 100 μl of 0.3M sodium acetate pH 5.5 saturated with MgSO4. The samples were extracted with 1.5 ml of ethyl acetate and 1 ml of the organic phase was checked for radioactivity. The 3' terminal pentanucleotide N-acetyl-[^3 H]Leu-ACCAC(U) was prepared from N-acetyl-[^3 H]Leu-tRNA by ribonuclease T1 as described by Monro.
as §4

[8] = molecular target: ribosomes from S. cerevisiae Y166 (peptidyl transferase activity); assay: fragment reaction, S. cerevisiae ribosomes; type: biochemical; settings: 50% inhibition relative to control; 0° C., 30 min, 33% methanol; read-out: ED50 Fragment reaction S. cerevisiae
Description: as §3, §5, §4

[9] = test system: ribosomes from E. coli MRE600 (peptidyl transferase activity); assay: puromycin reaction, E. coli ribosomes; type: biochemical; settings: 50% inhibition relative to control; read-out: ED50 Puromycin reaction E. coli
Description: as §3
The puromycin reaction was carried out in 25 μl of 30 mM KCl, 50 mM NH4 Cl, 30 mM Tris-HCl pH 7.8, 20 mM MgCl2, 10 pmol of ribosomes, 100 μg/ml of poly(U) and 15 pmol of N-acetyl-[^3 H]Phe-tRNA. The reaction mixture was incubated for 30 min at 37° C. and then 1 μl of 20 mM puromycin was added and incubation was followed for 5 more min. To the samples 250 μl of 0.1M sodium carbonate and 0.7 ml of ethyl acetate were added, shaken for 1 min, centrifuged to separate the phases and 0.5 ml of the upper organic phase taken for estimating the radioactivity.
as §4

[10] = test system: E. coli MRE600; assay: inhibition of bacterial growth; type: cell-based
Description: Inhibition of bacterial growth was tested in solid as well as in liquid medium. For the test on agar plates, petri dishes containing 15 ml of LB medium (10 g/l bactotryptone, 5 g/l yeast extract and 5 g/l NaCl) were covered with 5 ml of the same medium--kept melted at 40° C.--containing 40 μl of a culture of the required bacterium at approximately an A550 of 2. After solidification, 3 mm filter disks containing 4 μl of a 10 mM solution of the antibiotic in 50EtOH/DMSO were placed on the surface of the agar and the plates were incubated at 37° C. for 24 h. For the test in liquid medium, E. coli MRE600 was grown in LB medium supplemented with 0.2% of glucose to exponential phase (A560 =0.1) and distributed in 1 ml aliquots in tubes containing the required amount of antibiotic. The tubes were incubated at 37° C. for 4 h, subsequently diluted with 3 ml of 0.1% of sodium azide to stop growth and the absorption at 550 nm was measured. The absorption of the medium without addition of antibiotic was considered as 100% growth.

[11] = test system: RC (renal cell) carcinoma; assay: in vivo antitumor assay, RC (renal cell) carcinoma; set-up: species or system CDF1 mice; settings: for T/C (survival, treatment/control x 100%): ip daily x9, optimal dose mg/kg: sparsomycin 0.125, n-octyl 20.0, benzyl 2.7, 2a 1.1
Description: as §1, §2

[12] = solubility in water; type: physicochemical
[13] = female mice, ip daily x9, optimal dose mg/kg: sparsomycin 0.25, n-octyl 12.0, benzyl 10.0, 2a 2.5, 2e 13.3
[14] = female mice, ip daily x9, dose mg/kg: sparsomycin 0.25, n-octyl 12.0, benzyl 10.0, 2a 2.5, 2e 13.3
[15] = male mice, ip daily x9, dose mg/kg: sparsomycin 0.125, n-octyl 22.5, benzyl 2.0, 2e 20.0
[16] = soft agar 0.3%, 3 days continuous exposure, vs non-treated control cells
[17] = Escherichia coli, MRE600, 4 h, read-out: Growth inhibition E. coli MRE600 ED50
[18] = male mice, ip daily x9, optimal dose mg/kg: sparsomycin 0.125, n-octyl 20.0, benzyl 4.0, 2a 1.7
[19] = male mice, ip daily x9, dose mg/kg: sparsomycin 0.125, n-octyl 20.0, benzyl 4.0, 2a 1.7
[20] = male mice, ip daily x9, dose mg/kg: sparsomycin 0.125, n-octyl 20.0, benzyl 2.7, 2a 1.1

Compound	T/C (survival, treatment/control x 100%) [1, 13] [%]	cures (survivors in groups of 6 mice) [1, 14]	weight loss (T - C) ([1]; mouse, in vivo, ip) [g]	T/C (survival, treatment/control x 100%) ([2]; male mice) [%]	cures (survivors in groups of 6 mice) [2, 15]	weight loss (T - C) ([2]; mouse, in vivo, ip) [g]	LD50 [3] [mg/kg]	IC50 [4, 16] [nM]	IC50 [4] [nM]	IC50 [5] [µM]	IC50 [6] [nM]	IC50 [7] [µM]	IC50 [8] [µM]	IC50 [9] [nM]	IC50 [10, 17] [nM]	T/C (survival, treatment/control x 100%) [1, 18] [%]	cures (survivors in groups of 6 mice) [1, 19]	T/C (survival, treatment/control x 100%) ([11]; male mice) [%]	cures (survivors in groups of 6 mice) [11, 20]	solubility [12] [µg/mL]	also measured
CCCCSC[S@+]([O-])C[C@H](C)NC(=O)/C=C/c1c(C)[nH]c(=O)[nH]c1=O [2e, (Sc Rs)-1-(n-butylthiomethyl)sulfinyl-2-[β-(6-methyl-5-uracilyl)acrylamido]-propane]	161	0/6	-0.7	146	0/6	-3.2	> 16														
CCCCCCCCSC[S@+]([O-])C[C@H](C)NC(=O)/C=C/c1c(C)[nH]c(=O)[nH]c1=O [2f, (Sc Rs)-1-(n-octylthiomethyl)sulfinyl-2-[β-(6-methyl-5-uracilyl)acrylamido]-propane]								180													
CSC[S@@+]([O-])C[C@H](C)NC(=O)/C=C/c1c(C)[nH]c(=O)[nH]c1=O [3a, (Sc Ss)-1-(methylthiomethyl)sulfinyl-2-[β-(6-methyl-5-uracilyl)acrylamido]-propane]									550	283	143000	55	68	2700	44000						
Cc1[nH]c(=O)[nH]c(=O)c1/C=C/C(=O)N[C@@H](CO)C[S@@+]([O-])CSCc1ccccc1 [benzyl-sparsomycin]	217	0/6		133	0/6		5		110		600	7.6	2.6	130	1000	162	0/6	158	0/6	1500 (≈ 3430 µM)	weight loss (T - C) [1, 14]: -1.6 g; weight loss (T - C) ([1]; male mice, ip daily x9 from 24 h after implant, dose mg/kg: sparsomycin 0.125, n-octyl 20.0, benzyl 4.0, 2a 1.7): -1.8 g; weight loss (T - C) [2, 15]: -2.2 g; weight loss (T - C) [11, 20]: -1.8 g
CCCCCCCCSC[S@+]([O-])C[C@H](CO)NC(=O)/C=C/c1c(C)[nH]c(=O)[nH]c1=O [n-octyl-sparsomycin]	153	0/6	-1.9	150	0/6	-1.7	29.5	100		1.6	1300	60	300	250		152	0/6	179	0/6	~200 (≈ 435 µM)	IC50 ([10]; Escherichia coli, MRE600, 4 h; read-out: Growth inhibition E. coli MRE600 ED50): 2500 nM; weight loss (T - C) ([11]; mouse, in vivo, ip): -1.6 g
